According to patent US20220145092A1, “BIT COMPOSITIONS WITH SIGNIFICANTLY IMPROVED ACTIVITY” (Troy Technology II, Inc., priority 2020, published 2022):

Test system: Pseudomonas aeruginosa (ATCC 10145)
Assay: MIC by microbroth dilution and synergy index, Pseudomonas aeruginosa
Assay type: cell-based
Details: product level
Protocol: MICs were determined via microbroth dilution using the following specific test parameters:
Necessary organism dilutions via OD600 were calculated based on OD600 of 1.0 being equivalent to 8*10^8 CFU/mL. Biocide dilutions were performed in 2-fold increments for each assay.
Synergy index (SI) scores were calculated according to the mass action equation below:
S.I.=[MIC[A] in-blend/MIC[A] alone]+[MIC[B] in-blend/MIC[B] alone]
Combinations of ingredients were determined to be synergistic (S.I.≤0.5), additive (S.I.>0.5 to 1), indifferent (S.I.>1 to <2) or antagonistic (S.I.≥2), as defined by EUCAST guidelines^1. 1 European Committee for Antimicrobial Susceptibility Testing (EUCAST) of the European Society of Clinical Microbiology and Infectious Diseases (ESCMID). EUCAST Definitive Document E.Def 1.2, May 2000: Terminology relating to methods for the determination of susceptibility of bacteria to antimicrobial agents. Clin. Microbiol. Infect. Off. Publ. Eur. Soc. Clin. Microbiol. Infect. Dis. 6, 503-508 (2000).
MIC values for Mergal BIT20X (20% BIT), individual amines, and 1:1 mixtures of amines and Mergal BIT20X were determined against the test organism Pseudomonas aeruginosa (ATCC 10145) using 96-well microbroth dilution methodology.
Synergy of Jeffamine T403 and Mergal BIT20X mixtures from 1:50 to 50:1 were tested against P. aeruginosa. Jeffamine T403 was diluted to 20% w/w before mixing with Mergal BIT20X at the indicated ratios. The results are plotted in FIG. 1. Jeffamine T403 and Mergal BIT20X are synergistic at ratios with excess T403. In FIG. 1, the x-axis indicates the fractional BIT level in the blend (1=100% BIT, 0=100% T403, 0.5=50% BIT, 50% T403, etc.), the left y-axis is the MIC against Pseudomonas aeruginosa (ATCC 10145), and the right y-axis is the calculated Synergy Index (SI). The dotted line indicates the synergy index cutoff as defined by EUCAST guidelines (SI<0.5). The MIC raw data is presented in Table 3; MIC values are reported on active concentration.

Structure (SMILES) | MIC, Amine Only, Avg. | MIC, Amine Only, Rep. 1 | MIC, Amine Only, Rep.2
CC(CN)CCCN (stereo not drawn) [Dytek A] | 2500 ppm | 2500 ppm | 2500 ppm
NCCNCCNCCN [TETA] | 938 ppm | 625 ppm | 1250 ppm
